Results from article PMC8942850, “Boron clusters as broadband membrane carriers” (Nature, 2022).
Where two headings read alike, the source gives them in different places.

Experiments:
[1] = HPTS/DPX transport assay in zwitterionic EYPC vesicles; assay type: in vitro ADME; set-up: key to Et: Et = Ymax × (pEC50/ft); pEC50 = −log EC50
Procedure: The well-established HPTS/DPX assay, which uses 8-hydroxypyrene-1,3,6-trisulfonate (HPTS) and p-xylene-bis-pyridinium (DPX), was implemented to monitor peptide-transport activation (Fig. 2a). […] A surfactant (Triton X-100) was added at the end of the experiment (t = 600 s) to release all vesicle content and normalize the fluorescence intensity data.
Fig. 2 Carrier activity obtained from the HPTS/DPX assay. a, Schematic representation of the transport of otherwise impermeable analytes facilitated by superchaotropic cluster anions with encapsulated HPTS/DPX probe/quencher pair used for signalling. […] Concentrations of carrier and cargo, when fixed, were 40 and 20 µM, respectively, unless explicitly stated. Source data
A thin lipid film was prepared by evaporating a lipid solution with a stream of nitrogen and then dried in vacuo overnight.
Fluorescence intensities were normalized to fractional emission as I(t) = (It − I0)/(I∞ − I0), where I0 = It before cluster addition and I∞ = It after lysis.
In the activator measurements, in which different activators were tested with the same cargo, the activator efficiency (Ea) is determined from their ability to activate the transport of an impermeable cargo molecule and is characterized by Ymax, its maximal activity, and EC50, the effective activator concentration. A potent activator reaches high Ymax at low EC50. To reflect both factors, the activator efficiency is defined as Ea = Ymax × (pEC50/fa), where pEC50 is the negative logarithm of EC50.
In the transport measurements, in which different types of cargo were tested with the same activator, the transport efficiency (Et) reports on the sensitivity of the cargo for being transported and is described by Ymax, the maximal activity, and EC50, the effective cargo concentration. An easily accessible cargo reaches high Ymax at low EC50. The transport efficiency is defined as a composition of both parameters according to Et = Ymax × (pEC50/ft), where pEC50 is the negative logarithm of EC50.
Extended Data Fig. 3 Transport activity. a, Transport activity, Y, in EYPC⊃HPTS/DPX vesicles as a function of cluster concentration at constant cargo concentration (WR7, 20 µM). b, Transport activity, Y, for B12Br12^2− (40 µM) in EYPC⊃HPTS/DPX vesicles as a function of the concentration of different cargo types; red lines correspond to the resulting fit with the Hill equation. Source data

[2] = gold standard in the field; cited from earlier work
Description: U-tube transport experiments, across a bulk chloroform layer, unambiguously confirmed that the brominated cluster served as a non-covalent carrier across a hydrophobic bulk barrier (Extended Data Fig. 2a, b). To quantitatively characterize the transport efficiency of the new cluster carriers, the normalized fluorescence responses in the vesicle experiments (Fig. 2b) were plotted against cluster concentration to produce dose–response curves (Fig. 2c and Extended Data Fig. 3a). We extracted, by Hill analysis, the salient parameters: the maximal activity (Ymax), the concentration needed to achiev ...

HeLa cells [3] = assay: Phalloidin-TRITC delivery, confocal imaging of F-actin staining; assay type: cell-based; conditions: living HeLa cells, HKR buffer, 3 h, 500 nM cargo concentration
Procedure: (§1) Representative images of two biological replicates. […] Scale bars, 50 μm.
Cells were incubated with 7 µM phalloidin-TRITC (red) in the absence (left) and presence of 50 µM ^AcR8 (middle) or 50 µM of B12Br12^2− cluster (right) in HKR buffer for 3 h, subsequently stained with Hoechst (blue), washed with DMEM without phenol red, and imaged by confocal fluorescence microscopy; bright-field images in insets. Micrographs from each cell line were processed independently, experiments were performed twice. e, MTT viability assay of the corresponding cell lines (HeLa, GT1-7, ARPE-19 and A549, from left to right) at different concentrations (0, 25, 75, 250, and 500 µM) of B12Br12^2− (black) or ^AcR8 (red); data are mean ± s.d. of five measurements. f, Confocal images of HeLa cells after incubation with 500 nM phalloidin-TRITC and different concentrations B12Br12^2−; the images correspond to those of Fig. 4 in the main text, but are shown with increased brightness to facilitate observation of the actin filaments. Representative images of two biological replicates. All scale bars are […], except for panel f (50 µm). Source data

HeLa cells [4] = assay: Confocal imaging of TAMRA-R8 / TAMRA-D-R8 / TAMRA uptake in living cells; conditions: HeLa, 1, 10 or 50 µM TAMRA, 10 µM B12Br12^2− in HKR, 1 h
Description: as §1
Representative images of two biological replicates. […] Source data
(1 picture or pasted object on this page, not shown here)

[5] = system: Escherichia coli Top10 strain; assay: Kanamycin A delivery in E. coli (OD570 growth); assay type: cell-based; conditions: for mean_norm_OD570: LB, 37 °C, 18 h, mean of triplicate
Procedure: As a proof-of-principle, we investigated its potential to reduce the minimum inhibitory concentration of kanamycin A, an aminoglycoside antibiotic. Aminoglycosides function by binding to the bacterial 30S ribosomal subunit; consequently, effective passage through the cell wall and plasma membrane is essential for aminoglycosides to reach their intracellular targets. […]
A preculture of E. coli Top10 cells was incubated overnight in LB medium with 50 µg ml^−1 streptomycin sulfate. […] After 18 h, the optical density at 570 nm, as an indicator of bacterial growth, was measured with a Tecan Infinite F200Pro microplate reader. Data were normalized for each concentration of B12Br12^2− relative to the control condition without antibiotic.
Solid points indicate mean ± s.d. of three technical replicates. […] Cross-bars indicate mean ± s.d. of three independent experiments (two with technical triplicates, one with technical duplicates); values obtained in each experiment are represented by different shapes. c, Viability of HeLa cells after incubation with different doses of MMAF in the presence of 0, 5 and 10 μM B12Br12^2−. Solid points indicate mean ± s.d. of three technical replicates. d, Corresponding IC50 values of MMAF. […] Source data

For O=C(O)CCCc1ccc2ccc3cccc4ccc1c2c34 [Pyrenebutyrate (1), pyrenebutyrate, reference compound], which Ea activator efficiency ([1]; Ea = Ymax × (pEC50/fa), fa = 20.6, WR7 (20 μM) cargo, 10% error (SD)) is on record?
The Ea activator efficiency was 4.9.

And the “Activation of oligolysine (WK7) membrane transport” value ([1]; WK7 cargo, HPTS/DPX assay)?
Its value is “fails to trigger any signal”.

What about the “Ymax (%) maximal activity, carrier activity” value ([1]; carrier concentration varied, WR7 (20 μM) as common cargo, EYPC⊃HPTS/DPX vesicles, 13 µM lipid, 10 mM Tris, 107 mM NaCl, pH 7.4, HPTS fluorescence, Hill analysis, 10% error (SD) unless stated, n.a. = no detectable activity, d.l. = dye leakage, no determination possible) of the same compound?
The value was 100%.

And the “Activity as activator for the newly introduced targets” value ([1]; membrane-impermeable analytes (100 µM), HPTS/DPX assay)?
The value was “no activity”.

And the EC50 ([1]; read-out: EC50 (μM) effective carrier concentration to reach 50% of Ymax, carrier concentration varied, WR7 (20 μM) as common cargo, EYPC⊃HPTS/DPX vesicles, pH 7.4, Hill analysis, 10% error (SD) unless stated, n.a. = no detectable activity, d.l. = dye leakage, no determination possible)?
The EC50 was 103 µM.

And the Ea activator efficiency [2]?
Its Ea activator efficiency is “≈ 5”.

For Phalloidin-TRITC, which “F-actin staining after B12Br12^2−-triggered membrane passage” value (HeLa cells [3]) is on record?
Its value is “excellent staining of the F-actin target”.

With TAMRA [reference compound] as the compound, how does the “Transport of non-conjugated dye by B12Br12^2−” value (HeLa cells [4]) read?
Its value is “not carried”.

What does the source list for kanamycin A?
Et transport efficiency ([1]; Et = Ymax × (pEC50/ft), ft = 19.8 so that WR7 equals 10.0, B12Br12^2− (40 μM) carrier, 5% error (SD) unless stated): 1.7 ± 0.2; Et ([1]; Fig.2 d, per analyte (cargo)): 1.7; Ymax (%) maximal activity, transport of cargo ([1]; cargo concentration varied, B12Br12^2− (40 μM) as common carrier, EYPC⊃HPTS/DPX vesicles, 13 µM lipid, 10 mM Tris, 107 mM NaCl, pH 7.4, HPTS fluorescence, Hill analysis, 10% error (SD) unless stated, n.t. = no detectable transport): 54 ± 6%; EC50 ([1]; read-out: EC50 (μM) effective cargo concentration to reach 50% of Ymax, cargo concentration varied, B12Br12^2− (40 μM) as common carrier, EYPC⊃HPTS/DPX vesicles, pH 7.4, Hill analysis, 10% error (SD) unless stated, n.t. = no detectable transport): 235 ± 70 µM; mean_norm_OD570 ([5]; Kanamycin 3 µg/mL, B12Br12 0, normalised to no-antibiotic control): 68.2744; mean_norm_OD570 ([5]; Kanamycin 3 µg/mL, B12Br12 500 mM, normalised to no-antibiotic control at same B12Br12): 9.048; mean_norm_OD570 ([5]; Kanamycin 3 µg/mL, B12Br12 750 mM, normalised to no-antibiotic control at same B12Br12): 0.7906; mean_norm_OD570 ([5]; Kanamycin 3 µg/mL, B12Br12 1000 mM, normalised to no-antibiotic control at same B12Br12): 0.4633; mean_norm_OD570 ([5]; Kanamycin 2.5 mg/mL, B12Br12 0 (so in the source), normalised to no-antibiotic control): 70.6541; mean_norm_OD570 ([5]; Kanamycin 2.5 mg/mL, B12Br12 500 mM (so in the source), normalised to no-antibiotic control at same B12Br12): 24.7877; mean_norm_OD570 ([5]; Kanamycin 2.5 mg/mL, B12Br12 750 mM (so in the source), normalised to no-antibiotic control at same B12Br12): 9.686; mean_norm_OD570 ([5]; Kanamycin 2.5 mg/mL, B12Br12 1000 mM (so in the source), normalised to no-antibiotic control at same B12Br12): 14.0089; mean_norm_OD570 ([5]; Kanamycin 3.5 mg/mL, B12Br12 0 (so in the source), normalised to no-antibiotic control): 58.481; mean_norm_OD570 ([5]; Kanamycin 3.5 mg/mL, B12Br12 500 mM (so in the source), normalised to no-antibiotic control at same B12Br12): 0.383; mean_norm_OD570 ([5]; Kanamycin 3.5 mg/mL, B12Br12 750 mM (so in the source), normalised to no-antibiotic control at same B12Br12): 0.005219; mean_norm_OD570 ([5]; Kanamycin 3.5 mg/mL, B12Br12 1000 mM (so in the source), normalised to no-antibiotic control at same B12Br12): 0.103; E. coli viability, absence of cluster ([5]; kanamycin A 3.5 µg ml^−1, no B12Br12^2−): 60%; E. coli viability, presence of the cluster carrier ([5]; kanamycin A 3.5 µg ml^−1 with B12Br12^2−): < 1%
